One assay addresses full-length human RORγt (Homo sapiens (Human), UniProt P51449). As to the kind of experiment: RORγt (full-length human) reporter assay, Conditions B or C. The following applies: for inhibition at 3 µM: at 3 μM compound concentration, read-out: RORγt (FL) Reporter Assay B or C, % inhibition; for RORγt (FL) Reporter Assay B or C, % inhibition (value marked *): marked *: footnote not given. Format: cell-based. Put shortly: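 HEK293T cells transiently co-transfected with GAL4-DBD–full-length human RORγt (nt 142-1635, NM_001001523.1) plus GAL4-firefly and CMV-Renilla luciferase reporters; compounds added 4-6 h post-transfection for 16-20 h in 1.3% FBS, 0.1% DMSO. Firefly signal normalized to DMSO and saturating reference compound, then to Renilla; IC50 from concentration plots.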
A general note: Reporter assays use an easily measured gene product as a stand-in for the process of interest.

In assay [1] the target is human RORγt ligand binding domain (RORγt LBD) (Homo sapiens (Human), UniProt P51449). Put plainly: RORγt ThermoFluor® assay (thermal shift binding). The following applies: read-out: ThermoFluor® Assay, Kd. Put shortly: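 His-tagged human RORγt LBD (0.065 mg/mL) with 60 μM 1,8-ANS in 100 mM Hepes pH 7.0, 10 mM NaCl, 2.5 mM GSH, 0.002% Tween-20 was heated at 1 °C/min.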
Sequence of human RORγt ligand binding domain (RORγt LBD) (P51449 other isoform, or with tags, fused parts or gaps): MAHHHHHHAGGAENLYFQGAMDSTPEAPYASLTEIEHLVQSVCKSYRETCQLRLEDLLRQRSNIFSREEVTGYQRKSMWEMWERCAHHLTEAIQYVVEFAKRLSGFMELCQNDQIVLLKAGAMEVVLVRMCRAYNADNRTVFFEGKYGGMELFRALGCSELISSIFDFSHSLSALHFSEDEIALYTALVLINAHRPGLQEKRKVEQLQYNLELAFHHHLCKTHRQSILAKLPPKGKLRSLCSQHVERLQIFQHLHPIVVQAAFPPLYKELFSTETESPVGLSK
(In DSF a fluorescence change marks the thermal transition of the protein.)

The mark [2] stands for this setting: Conditions B or C, read-out: RORγt (FL) Reporter Assay B or C, IC50.
Where [3] appears, read: read-out: RORγt (FL) Reporter Assay B or C, IC50.

The values below come from patent publication US10975068B2, “6-aminopyridin-3-yl thiazoles as modulators of RORγT” (Janssen Pharmaceutica NV, priority 2016, dated 2021).

Molecules are shown by their SMILES. Read-outs that look alike come from different tables or passages of the source.

Sequence of full-length human RORγt (P51449 other isoform, or with tags, fused parts or gaps): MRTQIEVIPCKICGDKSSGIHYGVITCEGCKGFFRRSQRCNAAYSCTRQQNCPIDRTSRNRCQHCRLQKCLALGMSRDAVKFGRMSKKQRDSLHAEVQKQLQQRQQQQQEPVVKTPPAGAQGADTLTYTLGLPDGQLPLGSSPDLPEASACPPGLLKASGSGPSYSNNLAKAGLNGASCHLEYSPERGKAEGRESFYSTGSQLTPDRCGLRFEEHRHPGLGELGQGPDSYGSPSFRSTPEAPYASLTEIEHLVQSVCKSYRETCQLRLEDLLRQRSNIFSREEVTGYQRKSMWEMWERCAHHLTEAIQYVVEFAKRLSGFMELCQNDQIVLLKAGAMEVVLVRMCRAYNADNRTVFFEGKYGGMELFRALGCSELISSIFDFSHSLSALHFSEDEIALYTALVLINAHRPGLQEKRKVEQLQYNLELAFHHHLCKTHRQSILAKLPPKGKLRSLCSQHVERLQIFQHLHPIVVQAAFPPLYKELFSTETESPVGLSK

Regarding `C[C@H]1CCCCN1C(=O)c1nc(C(=O)NCC(C)(C)O)sc1-c1cnc(N[C@H](C)C(F)(F)F)cc1C(F)(F)F` [Example 45, N-(2-Hydroxy-2-methylpropyl)-4-((S)-2-methylpiperidine-1-carbonyl)-5-(4-(trifluoromethyl)-6-(((R)-1,1,1-trifluoropropan-2-yl)amino)pyridin-3-yl)thiazole-2-carboxamide], the IC50 at full-length human RORγt (setting [2]) worked out at 10 nM. Also, at full-length human RORγt (read-out: RORγt (FL) Reporter Assay B or C, % inhibition @ 6 μM, Conditions B or C, @ 6 μM), the inhibition at 6 µM is 111%. In assay [1], the Kd turned out to be 0.62 nM.
As for `C[C@H]1CCCN1C(=O)c1nc(C(=O)NCc2nnn[nH]2)sc1-c1cnc(NC(C)(C)C)cc1C(F)(F)F` [Example 303, (S)—N-((1H-Tetrazol-5-yl)methyl)-5-(6-(tert-butylamino)-4-(trifluoromethyl)pyridin-3-yl)-4-(2-methylpyrrolidine-1-carbonyl)thiazole-2-carboxamide], the inhibition at 3 µM on full-length human RORγt came out at 88%. The 50% inhibitory concentration (IC50) at full-length human RORγt (setting [3]) turned out to be 740 nM. In addition, the Kd in assay [1] is 15 nM.
For `CC[C@H](Nc1cc(C(F)(F)F)c(-c2sc(C(=O)NCC(C)(C)O)nc2C(=O)N2CC(F)(F)C[C@@H]2C)cn1)C(F)(F)F` [Example 102, 4-((S)-4,4-Difluoro-2-methylpyrrolidine-1-carbonyl)-N-(2-hydroxy-2-methylpropyl)-5-(6-(((S)-1,1,1-trifluorobutan-2-yl)amino)-4-(trifluoromethyl)pyridin-3-yl)thiazole-2-carboxamide], on full-length human RORγt (Conditions B or C), the “RORγt (FL) Reporter Assay B or C, % inhibition (value marked *)” value (from here on “RORγt … % inhibition (value marked *)”) is listed as 116* %. On full-length human RORγt (setting [2]), the IC50 is 17 nM. The Kd in assay [1] was determined as 0.99 nM.
The like results for `CC[C@H](Nc1cc(C(F)F)c(-c2sc(C(=O)N[C@@H](C)C(C)(C)O)nc2C(=O)N2C3CCC2CC3)cn1)C(F)(F)F` [Example 248] were, in that order, 102* %, 16 nM and 3.4 nM.
Take `C[C@H](Nc1cc(C(F)F)c(-c2sc(C(=O)N[C@H]3C[C@H](O)C3)nc2C(=O)N2C3CCC2CC3)cn1)C(F)(F)F` [Example 221, 4-((1s,4s)-7-Azabicyclo[2.2.1]heptane-7-carbonyl)-5-(4-(difluoromethyl)-6-(((1S)-2,2,2-trifluoro-1-methyl-ethyl)amino)-3-pyridyl)-N-((1r,3S)-3-hydroxycyclobutyl)thiazole-2-carboxamide]: the “RORγt … % inhibition (value marked *)” value on full-length human RORγt (Conditions B or C) is on record as 103* %. In addition, the IC50 at full-length human RORγt (setting [2]) was determined as 78 nM. In addition, the equilibrium dissociation constant (Kd) in assay [1] amounted to 27 nM.
On the same counts, the results for `CC[C@H](Nc1cc(C(F)F)c(-c2sc(C(=O)N[C@@H]3COC[C@H]3O)nc2C(=O)N2C3CCC2CC3)cn1)C(F)(F)F` [Example 208, 4-((1s,4s)-7-Azabicyclo[2.2.1]heptane-7-carbonyl)-5-(4-(difluoromethyl)-6-(((1S)-1-(trifluoromethyl)propyl)amino)-3-pyridyl)-N-((3R,4S)-4-hydroxytetrahydrofuran-3-yl)thiazole-2-carboxamide] are 101* %, 54 nM and 4.4 nM.
`CC(C)(C)Nc1cc(C(F)F)c(-c2sc(C(=O)N[C@@H]3CCC[C@H]3O)nc2C(=O)N2C3CCC2CC3)cn1` [Example 434, 4-((1s,4s)-7-Azabicyclo[2.2.1]heptane-7-carbonyl)-5-[6-(tert-butylamino)-4-(difluoromethyl)-3-pyridyl]-N-[(1R,2R)-2-hydroxycyclopentyl]thiazole-2-carboxamide]: on full-length human RORγt (RORγt (FL) Reporter Assay B or C, IC50), half-maximal inhibition (IC50) was put at 11 nM. The inhibition at 3 µM at full-length human RORγt was found to be 103%. Further, in assay [1], the Kd worked out at 0.63 nM.
`C[C@H]1CCCN1C(=O)c1nc(C(=O)NCc2n[nH]c(=O)[nH]2)sc1-c1cnc(NC(C)(C)C)cc1C(F)(F)F` [Example 302, (S)-5-(6-(tert-Butylamino)-4-(trifluoromethyl)pyridin-3-yl)-4-(2-methylpyrrolidine-1-carbonyl)-N-((5-oxo-4,5-dihydro-1H-1,2,4-triazol-3-yl)methyl)thiazole-2-carboxamide]: the inhibition at 3 µM at full-length human RORγt is 86%. In addition, the IC50 on full-length human RORγt (setting [3]) is more than 3000 nM. In addition, the Kd in assay [1] was 49 nM.
On the same counts, the results for `C[C@H]1CCCN1C(=O)c1nc(C(=O)NC2CCC2O)sc1-c1cnc(NC(C)(C)C)cc1C(F)(F)F` (stereo partly drawn) [Example 369, 5-(6-(tert-Butylamino)-4-(trifluoromethyl)pyridin-3-yl)-N-(trans-2-hydroxycyclobutyl)-4-((S)-2-methylpyrrolidine-1-carbonyl)thiazole-2-carboxamide] are 106%, 6.6 nM and 0.7 nM.
In the case of `CC[C@H](Nc1cc(C(F)F)c(-c2sc(C(=O)N[C@@H]3CC[C@H]3O)nc2C(=O)N2C3CCC2CC3)cn1)C(F)(F)F` (relative stereo) [Example 405, 4-((1s,4s)-7-Azabicyclo[2.2.1]heptane-7-carbonyl)-5-(4-(difluoromethyl)-6-(((S)-1,1,1-trifluorobutan-2-yl)amino)pyridin-3-yl)-N-((1R*,2R*)-2-hydroxycyclobutyl)thiazole-2-carboxamide], at full-length human RORγt, the inhibition at 3 µM was determined as 95%. Also, the IC50 at full-length human RORγt (setting [3]) was determined as 110 nM. Besides, the Kd in assay [1] is 2 nM.
For the molecule `CC[C@H](Nc1cc(C(F)F)c(-c2sc(C(=O)N[C@@H]3CCC[C@H]3O)nc2C(=O)N2C3CCC2CC3)cn1)C(F)(F)F` [Example 225, 4-((1s,4s)-7-Azabicyclo[2.2.1]heptane-7-carbonyl)-5-(4-(difluoromethyl)-6-(((1S)-1-(trifluoromethyl)propyl)amino)-3-pyridyl)-N-((1R,2R)-2-hydroxycyclopentyl)thiazole-2-carboxamide], the “RORγt … % inhibition (value marked *)” value at full-length human RORγt (Conditions B or C) was 110* %. For the same molecule, at full-length human RORγt (setting [2]), the IC50 came to 6.8 nM. In addition, the Kd in assay [1] came to 0.95 nM.
As for `CC[C@H](Nc1cc(C(F)F)c(-c2sc(C(=O)NC3CCOCC3)nc2C(=O)N2C3CCC2CC3)cn1)C(F)(F)F` [Example 153], the “RORγt … % inhibition (value marked *)” value at full-length human RORγt (Conditions B or C) was 98* %. Moreover, the IC50 on full-length human RORγt (setting [2]) was found to be 52 nM. Besides, the Kd in assay [1] stood at 1.1 nM.
Take `C[C@H]1CCCN1C(=O)c1nc(C(=O)N[C@H]2CC[C@@H](O)C2)sc1-c1cnc(NC(C)(C)C)cc1C(F)(F)F` [Example 367, 5-[6-(tert-Buylamino)-4-(trifluoromethyl)-3-pyridyl]-N-[(1S,3R)-3-hydroxycyclopentyl]-4-[(2S)-2-methylpyrrolidine-1-carbonyl]thiazole-2-carboxamide]: the inhibition at 3 µM on full-length human RORγt was 99%. Moreover, the IC50 on full-length human RORγt (setting [3]) was 21 nM. Besides, in assay [1], the Kd was 2.1 nM.
`CNC(=O)c1nc(C(=O)N2CCC[C@@H]2C)c(-c2cnc(NC(C)(C)C)cc2C(F)(F)F)s1` [Example 307, (S)-5-(6-(tert-Butylamino)-4-(trifluoromethyl)pyridin-3-yl)-N-methyl-4-(2-methylpyrrolidine-1-carbonyl)thiazole-2-carboxamide]: on full-length human RORγt, the inhibition at 3 µM worked out at 102%. Moreover, at full-length human RORγt (setting [3]), the half-maximal inhibitory concentration (IC50) turned out to be 150 nM. Besides, the Kd in assay [1] is 43 nM.
In the case of `C[C@H]1CCCN1C(=O)c1nc(C(=O)N[C@@H]2CCC[C@H]2O)sc1-c1cnc(NC(C)(C)C)cc1C(F)(F)F` [Example 351, 5-[6-(tert-Butylamino)-4-(trifluoromethyl)-3-pyridyl]-N-[(1R,2R)-2-hydroxycyclopentyl]-4-[(2S)-2-methylpyrrolidine-1-carbonyl]thiazole-2-carboxamide], the IC50 at full-length human RORγt (setting [3]) amounted to 8 nM. Further, the Kd in assay [1] turned out to be 0.15 nM.
With `CC(C)[C@@H](C)NC(=O)c1nc(C(=O)N2CCC[C@@H]2C)c(-c2cnc(NC(C)(C)C)cc2C(F)(F)F)s1` [Example 341, 5-[6-(tert-Butylamino)-4-(trifluoromethyl)-3-pyridyl]-N-[(1R)-1,2-dimethylpropyl]-4-[(2S)-2-methylpyrrolidine-1-carbonyl]thiazole-2-carboxamide], the inhibition at 3 µM on full-length human RORγt was 107%. The half-maximal inhibitory concentration (IC50) on full-length human RORγt (setting [3]) came out at 5.7 nM. In addition, the dissociation constant (Kd) in assay [1] was 4 nM.
Take `C[C@H](Nc1cc(C(F)F)c(-c2sc(C(=O)N[C@H](C)C(C)(C)O)nc2C(=O)N2CCC[C@@H]2C)cn1)C(F)(F)F` [Example 200, 5-(4-(Difluoromethyl)-6-(((S)-1,1,1-trifluoropropan-2-yl)amino)pyridine-3-yl)-N—((R)-3-hydroxy-3-methylburan-2-yl)-4-((S)-2-methylpyrrolidine-1-carbonyl)thiazole-2-carboxamide]: on full-length human RORγt (Conditions B or C), the “RORγt … % inhibition (value marked *)” value is 104* %. Further, the IC50 on full-length human RORγt (setting [2]) turned out to be 200 nM. Further, the Kd in assay [1] stood at 12 nM.
In the case of `C[C@H]1CCCN1C(=O)c1nc(C(=O)NC[C@H](O)C(C)(C)O)sc1-c1cnc(NC(C)(C)C)cc1C(F)(F)F` (single isomer, unassigned) [Example 244, 5-(6-(tert-Butylamino)-4-(trifluoromethyl)pyridin-3-yl)-N—((S*)-2,3-dihydroxy-3-methylbutyl)-4-((S)-2-methylpyrrolidine-1-carbonyl)thiazole-2-carboxamide], on full-length human RORγt (Conditions B or C), the “RORγt … % inhibition (value marked *)” value was 106* %. For the same molecule, on full-length human RORγt (setting [2]), the IC50 stood at 8.3 nM. Besides, the dissociation constant Kd in assay [1] was 6.2 nM.
Take `CC1(Nc2cc(C(F)F)c(-c3sc(C(=O)N[C@H]4C[C@H](O)C4)nc3C(=O)N3C4CCC3CC4)cn2)CCC1` [Example 330, 4-((1s,4s)-7-Azabicyclo[2.2.1]heptane-7-carbonyl)-5-(4-(difluoromethyl)-6-((1-methylcyclobutyl)amino)pyridin-3-yl)-N-((1r,3R)-3-hydroxycyclobutyl)thiazole-2-carboxamide]: the inhibition at 3 µM on full-length human RORγt was 93%. Further, at full-length human RORγt (setting [3]), the IC50 worked out at 16 nM. Also, the Kd in assay [1] is 4.2 nM.

By IC50 is commonly meant the concentration needed to halve the response being measured. In general, inhibition refers to the drop in the measured response relative to a control, in per cent. The term Kd denotes the constant that tells how readily two partners part at equilibrium.
